Source: patent US10780082B2, “Macrocycle and composition comprising thereof” (Shenzhen TargetRx, Inc., priority 2016, dated 2020)

tested on: BaF3-NPM-ALK cells; assay: Cytotoxicity experiment, ALK WT cells; type: cell-based, murine; details: two days incubation
Procedure: The cell line that can be used in the assay is Ba/F3, a murine pro-B cell line that has been stably transfected with the expression vector pClneo™ (Promega Corp., Madison Wis.) encoding NPM-ALK and subsequently G418-resistent cells were selected. The inhibitory activity of the compounds of Formula I can be determined as follows: BaF3-NPM-ALK cells (15000/well in a microtiter plate) were transferred to a 96-well microtiter plate. Test compounds (dissolved in DMSO) were then added in a series of concentrations (serial dilutions) with a final concentration of DMSO not exceeding 1% (v/v). […] The cell lysis was completed at room temperature within 60 minutes and the amount of Yopro bound to the DNA was determined by measurement using, for example, a CytoFluor II 96-well reader (PerSeptive Biosystems). IC50 can be determined by computer aided system using the following formula: IC50=[(ABS test−ABS start)/(ABS control−ABS start)]×100 wherein ABS was absorption.

Structure (SMILES)	IC50
CC1Oc2cc(cnc2N)-c2c(nn(C)c2C#N)CN(C)C(=O)c2ccc(F)cc21 (racemic) [Compound 28]	< 1 nM
CC1Oc2cc(cnc2N)-c2c(nn(C)c2C#N)CN(C)C(=O)c2ccc(F)cc21 (racemic) [Compound 45]	< 1 nM
CC1Oc2cc(cnc2N)-c2c(nn(C)c2C#N)CN(C)C(=O)c2ccc(F)cc21 (racemic) [Compound 58]	< 1 nM
CC1Oc2cc(cnc2N)-c2c(nn(C)c2C#N)CN(C)C(=O)c2ccc(F)cc21 (racemic) [Compound 72]	< 1 nM
CC1Oc2cc(cnc2N)-c2c(nn(C)c2C#N)CN(C)C(=O)c2ccc(F)cc21 (racemic) [Compound 76]	< 1 nM
CC1Oc2cc(cnc2N)-c2c(nn(C)c2C#N)CN(C)C(=O)c2ccc(F)cc21 (single isomer, unassigned) [Compound 18]	< 1 nM
C[C@H]1Oc2cc(cnc2N)-c2c(nn(C)c2C#N)CN(C)C(=O)c2ccc(F)cc21 [PF-06463922, reference compound]	< 1 nM
